Active and inactive are the calls of the source.
What was measured:
Assay type in all cases: cell membranes
[1] = molecular target: G-protein coupled receptor 84 (Mus musculus) (UniProt Q8CIM5); test: Displacement of [3H]PSB-1584 from GPR84 in mouse liver membranes measured after 6 hrs by scintillation counting method
[2] = organism: Rattus norvegicus; test: Displacement of [3H]PSB-1584 from GPR84 in rat liver membranes measured after 6 hrs by scintillation counting method
[3] = organism: Rattus norvegicus; test: Displacement of [3H]PSB-1584 from GPR84 in rat brain striatum membranes measured after 6 hrs by scintillation counting method
[4] = organism: Rattus norvegicus; test: Displacement of [3H]PSB-1584 from GPR84 in rat brain cortex membranes measured after 6 hrs by scintillation counting method

Measured: inhibition

Chain of G-protein coupled receptor 84 (Mus musculus) (Q8CIM5 whole entry): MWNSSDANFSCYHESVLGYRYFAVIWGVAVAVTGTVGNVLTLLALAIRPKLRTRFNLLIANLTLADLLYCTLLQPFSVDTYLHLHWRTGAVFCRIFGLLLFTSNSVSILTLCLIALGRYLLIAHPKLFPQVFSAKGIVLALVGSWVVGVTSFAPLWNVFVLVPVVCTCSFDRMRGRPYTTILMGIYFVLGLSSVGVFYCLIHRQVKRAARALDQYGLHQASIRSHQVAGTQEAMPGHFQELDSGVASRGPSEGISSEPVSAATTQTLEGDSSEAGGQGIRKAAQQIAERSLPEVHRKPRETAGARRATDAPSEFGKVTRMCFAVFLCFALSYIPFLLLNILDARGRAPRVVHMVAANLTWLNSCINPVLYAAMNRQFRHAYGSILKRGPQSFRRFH

O=c1cc(NCCc2ccc(Br)cc2)[nH]c(=O)[nH]1
active: all assays above
